From patent publication US20240417773A1 (priority 2022, published 2024)
Read-outs that look alike come from different tables or passages of the source.

Assays:
[1] = tested on: spores of the Bacillus atrophaeus; settings: 50° C., 1.74 mg/L; for Observation result: excitation 365 nm
Method: A bacterial carrier on each indicator includes about 106 spores of the Bacillus atrophaeus. The six indicators are divided into three groups, each of which has two indicators. […] A treatment for 0 sec at 50° C. means that no treatment is performed, and is a control group; a treatment for 20 sec at 50° C. simulates a condition of incomplete sterilization; and treatment for 60 sec at 50° C. simulates a condition of successful sterilization where all the spores are supposed to be skilled theoretically. An exposure position of the indicator is located at a cold spot of a sterilization device. A sample subjected to the sterilization treatment is transferred onto a bechtop. Bacteria strips included in the biological indicators in the three groups after the sterilization treatment are taken out by means of sterilized tweezers, put in a sterile centrifuge tube, added with an appropriate quantity of sterile recovered liquid (0.1% polysorbate 80, and 0.03 M phosphate buffer liquid with pH being 7.2), fully oscillated and crushed. Afterwards, the centrifuge tube is put in an ice-bath for cooling.
Then, a sample in the centrifuge tube is subjected to centrifugation (a centrifugal force being 2000×g, a temperature being 4° C. and a centrifugation duration being 20 min), an obtained supernatant passes through a 10 μm millipore filter (a spore diameter is 1 μm to 2 μm, so in order to make the spores pass through the filter and the bacteria strip slags are blocked, a filter of 2 μm or above is needed), so as to obtain filtrate.
An appropriate amount of sterile recovered liquid is added into filtered slags (a main component is a crushed bacteria strip fiber) obtained after the above centrifugal filtration, after oscillating and shaking well, the above centrifugal filtration process is repeated, filtrate including thermal-damaged spores is further recovered, repetition is performed for 2 to 3 times like this, and the filtrate obtained by each centrifugal filtration is gathered as the spore suspension.
(§1) One drop of the liquid medium (30 g/L agar and 15 g/L tryptic soy broth) subjected to high-temperature sterilization is dropwise added onto an object slide, after this drop of the liquid medium is solidified, one drop of the 4-MUG with a concentration being 210 mg/L is dropwise added onto the solid medium, and a moment later, the 4-MUG fully infiltrates into the solid medium.
(§2) One drop of the spore suspension (including the thermal-damaged spores) is dropwise added onto the solid medium.
The number and sizes of fluorescent spots are observed under the observation system. […]

[2] = tested on: spore strips produced by Xinhua Mesa®Strip; settings: 50° C., 1.74 mg/L; for Observation result: excitation 365 nm
Method: This embodiment selects six spore strips produced by Xinhua Mesa®Strip, which are divided into three groups and each group has two strips. […] A treatment for 0 sec at 50° C. means that no treatment is performed, and is a control group; a treatment for 20 sec at 50° C. simulates a condition of incomplete sterilization; and treatment for 60 sec at 50° C. simulates a condition of successful sterilization where all the spores are supposed to be skilled theoretically. An exposure position of the indicator is located at a cold spot of a sterilization device. A sample subjected to the sterilization treatment is transferred onto a bechtop. Bacteria strips included in the biological indicators in the three groups after the sterilization treatment are taken out by means of sterilized tweezers, put in a sterile centrifuge tube, added with an appropriate amount of sterile recovered liquid (0.1% polysorbate 80, and 0.03 M phosphate buffer liquid with pH being 7.2), fully oscillated and crushed. Afterwards, the centrifuge tube is put in an ice-bath for cooling.
as §1, §2
The number and sizes of fluorescent spots are observed under the observation system. The observation system is composed of four parts: 1) a stereoscopic microscope (a brand model may be: Nikon SMZ800); 2) a time gating camera (a brand model may be: Photonics Research Systems, Salford, UK) mounted on the above stereoscopic microscope; 3) a xenon flash lamp (a brand model may be: PerkinElmer, Waltham, MA) forming a 45° angle relative to a sample; and 4) a temperature-controlled microscope object slide stand (a brand model may be: Thermal).
Parameters set for the observation system are as follows: the xenon flash lamp has an excitation wavelength of 365 nm and an excitation slit width of 10 nm. Observed by the stereoscopic microscope, an emission wavelength is 544 nm, and an emission slit is 10 nm.

`OO` [hydrogen peroxide] was tested, and the Conclusion ([1]; 20 sec) was “Incomplete”, the Observation result ([1]; 20 sec) was “A certain quantity of scattered” and the Conclusion ([1]; 60 sec) was “Complete”. For the same molecule, the Observation result ([1]; 60 sec) was “No fluorescent spot”, the Conclusion ([2]; 20 sec) was “Incomplete” and the Observation result ([2]; 20 sec) was “A certain quantity of scattered”. For the same molecule, the Conclusion ([2]; 60 sec) was “Complete” and the Observation result ([2]; 60 sec) was “No fluorescent spot”.
